In patent US10730911B2, “Backbone-cyclized peptidomimetics with GLP-1R modulating activity” (POLYPHOR AG, priority 2015, dated 2020) one finds EC50 data, which are given here for 15 compounds.

The structures appear in SMILES notation. Where a SMILES comes first, the peptide text is derived from it. [ ]: non-standard residue; d: D form. Tyr(Ph) = N[C@@H](Cc1ccc(Oc2ccccc2)cc1)C(=O)O; Phe(4-NH2) = Nc1ccc(C[C@H](N)C(=O)O)cc1; Aic = NC1(C(=O)O)Cc2ccccc2C1; Ac7c = NC1(C(=O)O)CCCCCC1; Ac6c = NC1(C(=O)O)CCCCC1; Aib = CC(C)(N)C(=O)O

The target of this experiment is T1, human glucagon-like peptide-1 receptor (GLP-1R) (Homo sapiens, UniProt P43220).
T1 construct: host or cells: CHO chAMPion cells
T1 sequence (P43220 24-463): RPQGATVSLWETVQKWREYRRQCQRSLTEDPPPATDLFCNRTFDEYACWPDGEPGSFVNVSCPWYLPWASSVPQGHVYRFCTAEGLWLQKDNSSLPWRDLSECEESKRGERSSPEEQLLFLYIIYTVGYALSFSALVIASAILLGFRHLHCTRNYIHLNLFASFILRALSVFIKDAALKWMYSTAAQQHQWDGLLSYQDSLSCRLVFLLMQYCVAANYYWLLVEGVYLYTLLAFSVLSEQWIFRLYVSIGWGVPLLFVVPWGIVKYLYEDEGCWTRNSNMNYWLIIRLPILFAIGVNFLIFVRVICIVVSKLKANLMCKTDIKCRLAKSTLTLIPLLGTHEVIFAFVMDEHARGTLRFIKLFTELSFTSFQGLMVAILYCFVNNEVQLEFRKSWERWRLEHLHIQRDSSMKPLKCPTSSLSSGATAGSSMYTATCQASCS
The experiment can be described thus: Human GLP-1 receptor cell-based assay (flash luminescence, Target Activation phase). The settings on record: CHO chAMPion cells stably co-expressing human GLP-1R, Photina and cAMP-activated calcium channel; agonist activity; normalization by forskolin at 10 μM; ^a) values from single experiment; read-out: EC50 (μM) Target Activation (TA). The source says: CHO chAMPion cells (Axxam SpA; S. Corazza, Assay Drug Dev. Technol. 2009, 7, 304-307) stably co-expressing the human glucagon-like peptide-1 receptor (GLP-1R), the Ca^2+-sensitive photoprotein PHOTINA® (S. Bovolenta et al., J. Biomol. Screen. 2007, 12, 694-704) and a mutated cAMP-activated calcium ion channel (WO2004/083803 A2) were used to monitor GLP-1R signaling after stimulation with an agonist. Activation of the Gas-coupled GPCR GLP-1R was monitored by measuring the flash luminescence of the Ca^2+-sensitive photoprotein as reporter system with FLIPR^TETRA screening instrumentation (Molecular Devices) upgraded with an ICCD Camera (MDC). For data quality check and data analysis the Genedata SCREENER® software was used.
The reference agonist GLP-1 (glucagon-like peptide-1 amide fragment 7-36) and forskolin were purchased from Sigma (cat. G8147 and F6886, respectively) and prepared according to each ligand's specifications. All handling of ligands were done to ensure proper control throughout the experiments. The steps of the implemented workflow and data analysis are mainly as follows:
Stably transfected chAMPion cells are seeded 10000 c/w in 384 MTP in Dulbecco's MEM/nutrient mix F12 (BioWhittaker cat. BE04-687F/U1; 500 mL) supplemented with sodium pyruvate (BioWhittaker cat. BE13-115E; 5 mL of 100 mM solution), HEPES (BioWhittaker cat. BE17-737E; 6.5 mL of 1M solution), sodium bicarbonate (BioWhittaker cat. BE17-613E; 25 mL of 7.5% solution), fetal bovine serum (Euroclone cat. ECS 0180L; 50 mL), penicillin-streptomycin (BioWhittaker cat. DE17-602E; 5 mL of 100×solution), 1 mg/mL G418 (selection antibiotic for GLP-1R) and 200 μg/mL hygromycin in 25 μL/well for 24 hours. On the day of the experiment, plates are removed from the incubator, freed from the growth medium, equilibrated at room temperature for 1 h, loaded with 30 μl/well of Ca^2+ free Tyrode's buffer containing 20 μM coelentrazine and 500 μM IBMX, and incubated for 4 hours at room temperature.
All compounds were tested at 8 concentrations, starting from 50 μM in quadruplicate, intra-plate (dilution step 1:2.15) to determine EC50 values. After incubation, the volume in all the wells is flattened to 20 αL by aspiration with a CYBIO®-VARIO pipettor. First Injection (10 μL of test compounds in Ca^2+ free Tyrode's buffer, DMSO 0.5% v/v and BSA 0.01%; or 10 μL of reference compounds GLP-1 or forskolin in Ca′ free Tyrode's buffer, DMSO 0.5% v/v and BSA 0.01%) is performed by the FLIPR^TETRA and the kinetic response is optionally monitored over a period of 60 seconds. Incubation for 30 minutes at room temperature is followed by the Second Injection (Tyrode's buffer+10 mM CaCl2)) and the kinetic response is monitored over a period of 60 seconds.
The kinetic response is divided into two distinct phases: monitoring the kinetic response after the First Injection, termed Compound Addition (CA), and monitoring the kinetic response after the Second Injection of 10 mM CaCl2, termed Target Activation (TA). Agonist activity of compounds is evaluated in the Target Activation (TA) phase and it is based on normalization to TA activation by forskolin at 10 μM or GLP-1 at 3.16 nM (EC100)
A good correlation was observed between EC50, data normalized by forskolin and by GLP-1.
Consider `CC(C)C[C@@H]1NC(=O)[C@H](CC(C)C)NC(=O)[C@H](CCC(=O)O)NC(=O)[C@H](Cc2ccccc2)NC(=O)C2(Cc3ccccc3C2)NC(=O)[C@H]2CCCN2C(=O)[C@H](Cc2ccccc2)NC(=O)[C@H](CCC(=O)O)NC(=O)[C@H](Cc2c[nH]c3ccccc23)NC(=O)[C@H](C)NC1=O` [compound 52, cyclo(-Phe-Glu-Leu-Leu-Ala-Trp-Glu-Phe-^DPro-Ind-)] (cyclo(FELLAWEF[dP][Aic])), for which the concentration giving a half-maximal response (EC50) (commonly the concentration that produces a half-maximal response) came to 0.82 ± 0.25 µM.
The result for `COc1ccc(C[C@@H]2NC(=O)[C@H](Cc3ccccc3)NC(=O)C3(CCCCC3)NC(=O)[C@H]3CCCN3C(=O)[C@H](Cc3ccc(O)cc3)NC(=O)[C@H](CCC(=O)O)NC(=O)[C@H](Cc3c[nH]c4ccccc34)NC(=O)[C@H](C)NC(=O)[C@H](Cc3ccc(O)cc3)NC(=O)[C@H](CCC(N)=O)NC2=O)cc1` [compound 32, cyclo(-Phe-Tyr(Me)-Gln-Tyr-Ala-Trp-Glu-Tyr-^DPro-Chx-)] (cyclo(FY(Me)QYAWEY[dP][Ac6c])) reads 0.92 ± 0.31 µM; that for `C[C@@H]1NC(=O)[C@H](Cc2ccc(O)cc2)NC(=O)[C@H](CCC(N)=O)NC(=O)[C@H](Cc2c[nH]c3ccccc23)NC(=O)[C@H](Cc2ccccc2)NC(=O)C2(CCCCC2)NC(=O)[C@H]2CCCN2C(=O)[C@H](Cc2ccc(N)cc2)NC(=O)[C@H](CCC(=O)O)NC(=O)[C@H](Cc2c[nH]c3ccccc23)NC1=O` [compound 30, cyclo(-Phe-Trp-Gln-Tyr-Ala-Trp-Glu-Phe(4NH2)-^DPro-Chx-)] (cyclo(FWQYAWE[Phe(4-NH2)][dP][Ac6c])), 0.63 µM; that for `C[C@@H]1NC(=O)[C@H](Cc2ccc(O)cc2)NC(=O)[C@H](CCC(N)=O)NC(=O)[C@H](Cc2ccc(N)cc2)NC(=O)[C@H](Cc2ccccc2)NC(=O)C2(CCCCC2)NC(=O)[C@H]2CCCN2C(=O)[C@H](CCCNC(=N)N)NC(=O)[C@H](CCC(=O)O)NC(=O)[C@H](Cc2c[nH]c3ccccc23)NC1=O` [compound 21, cyclo(-Phe-Phe(4NH2)-Gln-Tyr-Ala-Trp-Glu-Arg-^DPro-Chx-)] (cyclo(F[Phe(4-NH2)]QYAWER[dP][Ac6c])), 0.67 ± 0.28 µM.
The result for `CC(C)C[C@@H]1NC(=O)[C@H](CCC(N)=O)NC(=O)[C@H](Cc2ccccc2)NC(=O)C2(CCCCC2)NC(=O)[C@H]2CCCN2C(=O)[C@H](Cc2ccc(O)cc2)NC(=O)[C@H](CCC(=O)O)NC(=O)[C@H](Cc2c[nH]c3ccccc23)NC(=O)[C@H](C)NC(=O)[C@H](Cc2ccc(O)cc2)NC1=O` [compound 40, cyclo(-Phe-Gln-Leu-Tyr-Ala-Trp-Glu-Tyr-^DPro-Chx-)] (cyclo(FQLYAWEY[dP][Ac6c])) reads 1.2 ± 0.6 µM.
With `C[C@@H]1NC(=O)[C@H](Cc2ccc(O)cc2)NC(=O)[C@H](CCC(N)=O)NC(=O)[C@H](Cc2c[nH]c3ccccc23)NC(=O)[C@H](Cc2ccccc2)NC(=O)C2(CCCCC2)NC(=O)[C@H]2CCCN2C(=O)[C@H](Cc2c[nH]c3ccccc23)NC(=O)[C@H](CCC(=O)O)NC(=O)[C@H](Cc2c[nH]c3ccccc23)NC1=O` [compound 17, cyclo(-Phe-Trp-Gln-Tyr-Ala-Trp-Glu-Trp-^DPro-Chx-)] (cyclo(FWQYAWEW[dP][Ac6c])), the EC50 amounted to 0.6 ± 0.29 µM.
The result for `CC(C)C[C@@H]1NC(=O)[C@H](CCC(=O)O)NC(=O)[C@H](Cc2ccccc2)NC(=O)C2(CCCCC2)NC(=O)[C@H]2CCCN2C(=O)[C@H](CCCNC(=N)N)NC(=O)[C@H](CCC(=O)O)NC(=O)[C@H](Cc2c[nH]c3ccccc23)NC(=O)[C@H](C)NC(=O)[C@H](Cc2ccc(O)cc2)NC1=O` [compound 42, cyclo(-Phe-Glu-Leu-Tyr-Ala-Trp-Glu-Arg-^DPro-Chx-)] (cyclo(FELYAWER[dP][Ac6c])) reads 2.2 ± 1 µM; that for `C[C@@H]1NC(=O)[C@H](Cc2ccc(O)cc2)NC(=O)[C@H](CCC(N)=O)NC(=O)[C@H](Cc2c[nH]c3ccccc23)NC(=O)[C@H](Cc2ccccc2)NC(=O)C2(CCCCC2)NC(=O)[C@H]2CCCN2C(=O)[C@H](Cc2ccccc2)NC(=O)[C@H](CCC(=O)O)NC(=O)[C@H](Cc2c[nH]c3ccccc23)NC1=O` [compound 24, cyclo(-Phe-Trp-Gln-Tyr-Ala-Trp-Glu-Phe-^DPro-Chx-)] (cyclo(FWQYAWEF[dP][Ac6c])), 0.89 ± 0.51 µM; that for `CC(C)C[C@@H]1NC(=O)[C@H](CC(C)C)NC(=O)[C@H](CCC(=O)O)NC(=O)[C@H](Cc2ccccc2)NC(=O)C2(CCCCCC2)NC(=O)[C@H]2CCCN2C(=O)[C@H](Cc2ccccc2)NC(=O)[C@H](CCC(=O)O)NC(=O)[C@H](Cc2c[nH]c3ccccc23)NC(=O)[C@H](C)NC1=O` [compound 53, cyclo(-Phe-Glu-Leu-Leu-Ala-Trp-Glu-Phe-^DPro-Ac7c-)] (cyclo(FELLAWEF[dP][Ac7c])), 2.1 µM.
The result for `CC(C)C[C@@H]1NC(=O)[C@H](CCC(=O)O)NC(=O)[C@H](Cc2ccccc2)NC(=O)C2(CCCCC2)NC(=O)[C@H]2CCCN2C(=O)[C@H](Cc2c[nH]c3ccccc23)NC(=O)[C@H](CCC(=O)O)NC(=O)[C@H](Cc2c[nH]c3ccccc23)NC(=O)[C@H](C)NC(=O)[C@H](Cc2ccc(O)cc2)NC1=O` [compound 16, cyclo(-Phe-Glu-Leu-Tyr-Ala-Trp-Glu-Trp-^DPro-Chx-)] (cyclo(FELYAWEW[dP][Ac6c])) reads 0.41 µM; that for `C[C@@H]1NC(=O)[C@H](Cc2ccc(O)cc2)NC(=O)[C@H](CCC(N)=O)NC(=O)[C@H](Cc2ccc(Oc3ccccc3)cc2)NC(=O)[C@H](Cc2ccccc2)NC(=O)C(C)(C)NC(=O)[C@H]2CCCN2C(=O)[C@H](CCCNC(=N)N)NC(=O)[C@H](CCC(=O)O)NC(=O)[C@H](Cc2c[nH]c3ccccc23)NC1=O` [compound 11, cyclo(-Phe-Tyr(Ph)-Gln-Tyr-Ala-Trp-Glu-Arg-^DPro-Aib-)] (cyclo(F[Tyr(Ph)]QYAWER[dP][Aib])), 0.54 ± 0.43 µM.
Take `CC(C)C[C@@H]1NC(=O)[C@H](Cc2c[nH]cn2)NC(=O)[C@H](Cc2ccccc2)NC(=O)C2(CCCCC2)NC(=O)[C@H]2CCCN2C(=O)[C@H](Cc2ccc(O)cc2)NC(=O)[C@H](CCC(=O)O)NC(=O)[C@H](Cc2c[nH]c3ccccc23)NC(=O)[C@H](C)NC(=O)[C@H](Cc2ccc(O)cc2)NC1=O` [compound 20, cyclo(-Phe-His-Leu-Tyr-Ala-Trp-Glu-Tyr-^DPro-Chx-)] (cyclo(FHLYAWEY[dP][Ac6c])): the EC50 was determined as 0.59 ± 0.35 µM.
The result for `CC(C)C[C@@H]1NC(=O)[C@H](Cc2c[nH]cn2)NC(=O)[C@H](Cc2ccccc2)NC(=O)C(C)(C)NC(=O)[C@H]2CCCN2C(=O)[C@H](Cc2ccc(O)cc2)NC(=O)[C@H](CCC(N)=O)NC(=O)[C@H](Cc2c[nH]c3ccccc23)NC(=O)[C@H](C)NC(=O)[C@H](Cc2ccc(O)cc2)NC1=O` [compound 51, cyclo(-Phe-His-Leu-Tyr-Ala-Trp-Gln-Tyr-^DPro-Aib-)] (cyclo(FHLYAWQY[dP][Aib])) reads 3.3 µM.
The result for `C[C@@H]1NC(=O)[C@H](Cc2ccc(O)cc2)NC(=O)[C@H](CCC(N)=O)NC(=O)[C@H](Cc2ccc(Oc3ccccc3)cc2)NC(=O)[C@H](Cc2ccccc2)NC(=O)C2(CCCCC2)NC(=O)[C@H]2CCCN2C(=O)[C@H](Cc2ccc(O)cc2)NC(=O)[C@H](CCC(=O)O)NC(=O)[C@H](Cc2c[nH]c3ccccc23)NC1=O` [compound 7, cyclo(-Phe-Tyr(Ph)-Gln-Tyr-Ala-Trp-Glu-Tyr-^DPro-Chx-)] (cyclo(F[Tyr(Ph)]QYAWEY[dP][Ac6c])) reads 0.57 ± 0.58 µM.
The result for `C[C@@H]1NC(=O)[C@H](Cc2ccc(O)cc2)NC(=O)[C@H](CCC(N)=O)NC(=O)[C@H](Cc2ccc(O)cc2)NC(=O)[C@H](Cc2ccccc2)NC(=O)C2(CCCCC2)NC(=O)[C@H]2CCCN2C(=O)[C@H](Cc2ccc(O)cc2)NC(=O)[C@H](CCC(=O)O)NC(=O)[C@H](Cc2c[nH]c3ccccc23)NC1=O` [compound 14, cyclo(-Phe-Tyr-Gln-Tyr-Ala-Trp-Glu-Tyr-^DPro-Chx-)] (cyclo(FYQYAWEY[dP][Ac6c])) reads 0.72 ± 0.43 µM.
